Test results: paper PMC1664607 (PLoS Medicine, 2006)
Converted amounts (≈) assume the structure as drawn. Read-outs that look alike come from different tables or passages of the source.

What was measured:
[1] = target: T1, CYP2C19 (Homo sapiens, UniProt P33261); assay: S-mephenytoin 4′ -hydroxylation in human liver microsomes; assay type: in vitro ADME; conditions: 100 μM S-mephenytoin
T1 construct: Standard incubation mixtures of 0.5 ml contained microsomal protein (0.1–0.5 mg); from tissue; host or cells: pooled human liver microsomes (ten donors)

[2] = test system: intracellular M. tuberculosis H37Rv in THP-1 cells; assay: Activity against intracellular mycobacteria, 4-h pulsed exposure; assay type: cell-based, M. tuberculosis; human THP-1 cells; conditions: further 68-h culture
[3] = test system: M. tuberculosis ATCC 35812 (Kurono); assay: Susceptibility testing (agar dilution MIC); assay type: cell-based; conditions: Mycobacterium tuberculosis, ATCC35812, 336 h; 7H11 agar, 37 °C, 14 d; read-out: MIC
[4] = test system: clinically isolated M. tuberculosis; assay: microbe, parasite or virus in culture; assay type: cell-based; conditions: for MIC90: Mycobacterium tuberculosis, read-out: MIC90
[5] = test system: CYP2C8/9; assay: Tolubutamide methylhydroxylation in human liver microsomes; assay type: in vitro ADME; conditions: 400 μM tolbutamide
[6] = test system: M. tuberculosis ATCC 35838 (H37Rv-R-R); assay: microbe, parasite or virus in culture; assay type: cell-based; conditions: Mycobacterium tuberculosis, 336 h
[7] = test system: mycolic acid synthesis in M. bovis BCG; assay: microbe, parasite or virus in culture; assay type: cell-based; conditions: for IC50: Mycobacterium tuberculosis variant bovis BCG, BCG
[8] = test system: CYP1A1/2; assay: 7-Ethoxyresorufin O-deethylation in human liver microsomes; assay type: in vitro ADME; conditions: 0.5 μM 7-ethoxyresorufin
[9] = test system: M. tuberculosis ATCC 35822 (H37Rv-H-R); assay: microbe, parasite or virus in culture; assay type: cell-based; conditions: Mycobacterium tuberculosis, 336 h
[10] = target: T2, CYP2B6 (Homo sapiens, UniProt P20813); conditions: […] 7-benzyloxyresorufin
T2 sequence (P20813 1-491): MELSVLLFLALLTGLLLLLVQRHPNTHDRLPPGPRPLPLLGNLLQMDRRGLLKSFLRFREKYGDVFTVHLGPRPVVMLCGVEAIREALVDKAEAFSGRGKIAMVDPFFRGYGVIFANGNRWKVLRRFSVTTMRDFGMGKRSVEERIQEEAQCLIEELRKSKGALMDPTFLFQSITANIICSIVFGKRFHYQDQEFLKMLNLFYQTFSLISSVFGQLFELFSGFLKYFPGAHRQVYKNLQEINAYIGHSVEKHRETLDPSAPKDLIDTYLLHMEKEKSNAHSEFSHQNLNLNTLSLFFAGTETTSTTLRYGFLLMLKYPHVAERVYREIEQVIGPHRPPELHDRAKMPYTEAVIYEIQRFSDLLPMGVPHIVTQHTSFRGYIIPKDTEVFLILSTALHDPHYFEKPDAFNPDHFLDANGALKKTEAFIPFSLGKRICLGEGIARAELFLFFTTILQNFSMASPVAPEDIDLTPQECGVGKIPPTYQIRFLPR

[11] = test system: M. tuberculosis ATCC 35820 (H37Rv-S-R); assay: microbe, parasite or virus in culture; assay type: cell-based; conditions: Mycobacterium tuberculosis, 336 h

T1 sequence (P33261 whole entry): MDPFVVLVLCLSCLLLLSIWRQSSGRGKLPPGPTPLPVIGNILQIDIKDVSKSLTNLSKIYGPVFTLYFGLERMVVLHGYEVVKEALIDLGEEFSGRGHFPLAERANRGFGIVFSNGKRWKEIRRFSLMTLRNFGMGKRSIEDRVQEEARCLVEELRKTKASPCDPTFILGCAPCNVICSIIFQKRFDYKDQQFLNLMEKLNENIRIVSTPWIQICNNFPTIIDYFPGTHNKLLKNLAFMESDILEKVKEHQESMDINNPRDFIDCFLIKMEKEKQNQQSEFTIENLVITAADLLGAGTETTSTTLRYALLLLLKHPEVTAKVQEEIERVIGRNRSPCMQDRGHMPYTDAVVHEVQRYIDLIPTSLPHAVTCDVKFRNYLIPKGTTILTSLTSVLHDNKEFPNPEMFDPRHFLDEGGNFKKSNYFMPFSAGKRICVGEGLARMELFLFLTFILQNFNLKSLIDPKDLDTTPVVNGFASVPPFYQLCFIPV

`C[C@]1(COc2ccc(N3CCC(Oc4ccc(OC(F)(F)F)cc4)CC3)cc2)Cn2cc([N+](=O)[O-])nc2O1` [OPC-67683, (R)-2-methyl-6-nitro-2-(4-[4-(4-trifluoromethoxyphenoxy)piperidin-1-yl]phenoxymethyl}-2,3-dihydroimidazo[2,1-b]oxazole] was tested, and the “Percent of Control” value ([1]; 10 μM) was 113.3% of Control, the “Percent of Control” value ([1]; 100 μM) was 107.6% of Control and the “Activity against intracellular M. tuberculosis H37Rv” value [2] was “highly active”. For the same molecule, the MIC [3] was 0.012 µg/mL (≈ 0.0225 µM), the “MIC90 of OPC-67683 times lower than that of EB” value [4] was about 303 times and the “MIC90 of OPC-67683 times lower than that of INH” value [4] was “eight”. For the same molecule, the “MIC90 of OPC-67683 times lower than that of RFP” value [4] was “about 24 times”, the “MIC90 of OPC-67683 times lower than that of SM” value [4] was about 244 times and the MIC90 ([4]; EB-susceptible M. tuberculosis (56 strains)) was 0.0121 µg/mL (≈ 0.0227 µM). It also gave an MIC90 ([4]; INH-susceptible M. tuberculosis (31 strains)) of 0.0119 µg/mL (≈ 0.0223 µM), an MIC90 ([4]; RFP-susceptible M. tuberculosis (31 strains)) of 0.0125 µg/mL (≈ 0.0233 µM) and an MIC90 ([4]; SM-susceptible M. tuberculosis (49 strains)) of 0.012 µg/mL (≈ 0.0225 µM). For the same molecule, the MIC90 [4] was 0.012 µg/mL (≈ 0.0225 µM), the “Percent of Control” value ([5]; 10 μM) was 107.2% of Control and the “Percent of Control” value ([5]; 30 μM) was 107.8% of Control. The “Percent of Control” value ([5]; 100 μM) was 108.5% of Control, the MIC [6] was 6 ng/mL (≈ 0.0112 µM) and the “IC50, α-Mycolic acid” value ([7]; 14C acetic acid incorporation, 60 min, TLC n = 3) was over 0.25 µg/mL. The IC50 ([7]; 1 h, read-out: IC50, Fatty acid) was over 0.25 µg/mL, the IC50 ([7]; 1 h, read-out: IC50, Keto-mycolic acid) was 0.021 µg/mL (≈ 0.0393 µM) and the IC50 ([7]; 1 h, read-out: IC50, Methoxy-mycolic acid) was 0.036 µg/mL (≈ 0.0674 µM). For the same molecule, the IC50 ([7]; 1 h, read-out: IC50, α-Mycolic acid) was over 0.25 µg/mL, the IC50 ([7]; read-out: IC50 values, synthesis of methoxy- and keto-mycolic acid) was 0.021 to 0.036 µg/mL (≈ 0.0393 to 0.0674 µM) and the “Percent of Control” value ([8]; 10 μM) was 98.4% of Control. The “Percent of Control” value ([8]; 30 μM) was 102.5% of Control, the “Percent of Control” value ([8]; 100 μM) was 98.6% of Control and the MIC [9] was 0.012 µg/mL (≈ 0.0225 µM). For the same molecule, the “Percent of Control” value ([10]; 10 μM) was 118.3% of Control, the “Percent of Control” value ([10]; 30 μM) was 112.8% of Control and the “Percent of Control” value ([10]; 100 μM) was 122.3% of Control. For the same molecule, the MIC [11] was 0.012 µg/mL (≈ 0.0225 µM).
